Source: PubChem BioAssay (NCI)
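Tested at 5 concentrations; 48 h exposure; 96-well plates; endpoints linearly interpolated, else capped at highest concentration. GI50 = concentration required for 50% inhibition of growth. TGI: concentration producing complete growth inhibition.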

Experiments:
Assay in all cases: DTP human tumour cell line panel, 48 h
[1] = test system: MALME-3M melanoma
[2] = test system: HT29 colon
[3] = test system: DU-145 prostate
[4] = test system: UACC-62 melanoma
[5] = test system: SF-268 CNS
[6] = test system: HCC-2998 colon
[7] = test system: UO-31 renal
[8] = test system: LOX IMVI melanoma
[9] = test system: SK-MEL-2 melanoma
[10] = test system: COLO 205 colon
[11] = test system: HOP-62 NSCLC
[12] = test system: SN12C renal
[13] = test system: TK-10 renal
[14] = test system: K-562 leukemia
[15] = test system: 786-0 renal
[16] = test system: RPMI-8226 leukemia
[17] = test system: SF-295 CNS
[18] = test system: HCT-15 colon
[19] = test system: T-47D breast
[20] = test system: HCT-116 colon
[21] = test system: M14 melanoma
[22] = test system: OVCAR-5 ovarian
[23] = test system: SF-539 CNS
[24] = test system: ACHN renal
[25] = test system: SW-620 colon
[26] = test system: A498 renal
[27] = test system: RXF 393 renal
[28] = test system: MOLT-4 leukemia
[29] = test system: SK-MEL-28 melanoma

C1=Cc2ccccc2Nc2ccccc21
GI50 [1]: > 100 µM | TGI [1]: > 100 µM | GI50 [2]: > 100 µM | TGI [2]: > 100 µM | GI50 [3]: > 100 µM | TGI [3]: > 100 µM | GI50 [4]: > 100 µM | TGI [4]: > 100 µM | GI50 [5]: > 100 µM | TGI [5]: > 100 µM | GI50 [6]: > 100 µM | TGI [6]: > 100 µM | GI50 [7]: > 100 µM | TGI [7]: > 100 µM | GI50 [8]: > 100 µM | TGI [8]: > 100 µM | GI50 [9]: > 100 µM | TGI [9]: > 100 µM | GI50 [10]: > 100 µM | TGI [10]: > 100 µM | GI50 [11]: > 100 µM | TGI [11]: > 100 µM | GI50 [12]: > 100 µM | TGI [12]: > 100 µM | GI50 [13]: > 100 µM | TGI [13]: > 100 µM | GI50 [14]: > 100 µM | TGI [14]: > 100 µM | GI50 [15]: > 100 µM | TGI [15]: > 100 µM | GI50 [16]: > 100 µM | TGI [16]: > 100 µM | GI50 [17]: > 100 µM | TGI [17]: > 100 µM | GI50 [18]: > 100 µM | TGI [18]: > 100 µM | GI50 [19]: > 100 µM | TGI [19]: > 100 µM | GI50 [20]: > 100 µM | TGI [20]: > 100 µM | GI50 [21]: > 100 µM | TGI [21]: > 100 µM | GI50 [22]: > 100 µM | TGI [22]: > 100 µM | GI50 [23]: > 100 µM | TGI [23]: > 100 µM | GI50 [24]: > 100 µM | TGI [24]: > 100 µM | GI50 [25]: > 100 µM | TGI [25]: > 100 µM | GI50 [26]: > 100 µM | TGI [26]: > 100 µM | GI50 [27]: > 100 µM | TGI [27]: > 100 µM | GI50 [28]: > 100 µM | TGI [28]: > 100 µM | GI50 [29]: > 100 µM | TGI [29]: > 100 µM
